Drawing on patent US20210115018A1, “PIPERIDINE COMPOUNDS AS COVALENT MENIN INHIBITORS” (THE REGENTS OF THE UNIVERSITY OF MICHIGAN, priority 2018, published 2021), this text covers IC50 for 23 molecules.

One test addresses T1, menin protein (Homo sapiens, UniProt O00255).
T1 sequence (O00255 1-610): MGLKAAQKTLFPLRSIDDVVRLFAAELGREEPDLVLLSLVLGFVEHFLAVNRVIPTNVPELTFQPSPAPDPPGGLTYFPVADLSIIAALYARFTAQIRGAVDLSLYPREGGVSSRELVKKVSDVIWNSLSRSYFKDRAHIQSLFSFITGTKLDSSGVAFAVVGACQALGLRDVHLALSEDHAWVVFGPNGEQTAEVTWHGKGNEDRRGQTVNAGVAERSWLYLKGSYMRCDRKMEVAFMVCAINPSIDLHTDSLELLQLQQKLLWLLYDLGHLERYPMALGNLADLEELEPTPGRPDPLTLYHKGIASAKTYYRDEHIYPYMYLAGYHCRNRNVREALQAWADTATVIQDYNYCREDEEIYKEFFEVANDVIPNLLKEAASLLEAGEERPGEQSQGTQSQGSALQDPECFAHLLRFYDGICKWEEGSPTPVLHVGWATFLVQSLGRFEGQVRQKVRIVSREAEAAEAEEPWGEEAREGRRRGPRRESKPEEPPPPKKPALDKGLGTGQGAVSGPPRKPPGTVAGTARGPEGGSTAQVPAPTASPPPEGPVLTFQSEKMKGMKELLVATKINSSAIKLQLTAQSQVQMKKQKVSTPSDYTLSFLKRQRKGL
Briefly: Fluorescence polarization (FP) competitive binding assay, menin binding affinity. As to conditions: FP competition with FAM-MM2 probe 2 nM, menin 4 nM, 30 minutes room temperature. How it is done:
A fluorescence polarization (FP) competitive binding assay was used to determine the binding affinities of representative menin inhibitors. A FAM labeled fluorescent probe was designed and synthesized based on a MLL1 peptide (FAM-MM2). Equilibrium dissociation constant (Kd) value of FAM-MM2 to menin protein was determined from protein saturation experiments by monitoring the total fluorescence polarization of mixtures composed with the fluorescent probe at a fixed concentration and the protein with increasing concentrations up to full saturation. Serial dilutions of the protein were mixed with FAM-MM2 to a final volume of 200 μl in the assay buffer (PBS with 0.02% Bovine γ-Globulin and 4% DMSO. 0.01% Triton X-100 was added right before assays). Final FAM-MM2 concentration was 2 nM. Plates were incubated at room temperature for 30 minutes with gentle shaking to assure equilibrium. FP values in millipolarization units (mP) were measured using the Infinite M-1000 plate reader (Tecan U.S., Research Triangle Park, N.C.) in Microfluor 1 96-well, black, v-bottom plates (Thermo Scientific, Waltham, Mass.) at an excitation wavelength of 485 nm and an emission wavelength of 530 nm.
The IC50 of representative Compounds of the Disclosure, see Table 3, were determined in a competitive binding experiment. Mixtures of 5 μl of the tested compounds in DMSO and 195 μl of preincubated protein/probe complex solution in the assay buffer were added into assay plates which were incubated at room temperature for 30 minutes with gentle shaking. Final concentration of the menin protein was 4 nM, and final probe concentration is 2 nM. Negative controls containing protein/probe complex only (equivalent to 0% inhibition), and positive controls containing only free probes (equivalent to 100% inhibition), were included in each assay plate. FP values were measured as described above. IC50 values were determined by nonlinear regression fitting of the competition curves.
On the technique in general: Fluorescence polarisation rises when a labelled molecule tumbles more slowly, as on binding a larger partner.

For the next test, the system named is MV4-11. Briefly: 7-day proliferation assay (WST-8), cell growth inhibition. The class given is cell-based. Conditions: Homo sapiens, MV4-11, 168 h, MV4-11 cells, 7 days. The protocol: The effect of representative Compounds of the Disclosure on cell viability was determined in a 7-day proliferation assay. Cells were maintained in the appropriate culture medium with 10% FBS at 37° C. and an atmosphere of 5% CO2.
Cells were seeded in 96-well flat bottom (Corning COSTAR, Corning, NY, cat#3595) at a density of 2,000-3,000 cells/well in 100 μl of culture medium. Compounds were serially diluted in the appropriate medium, and […] the diluted compounds were added to the appropriate wells of the cell plate. After the addition of compounds, the cells were incubated at 37° C. in an atmosphere of 5% CO2 for 7 days. Cell viability was determined using the WST (2-(2-methoxy-4-nitrophenyl)-3-(4-nitrophenyl)-5-(2,4-disulfophenyl)-2H-tetrazolium, monosodium salt) Cell Counting-8 Kit (Dojindo Molecular Technologies, Inc., Rockville, Md.) according to the manufacturers' instructions.
WST-8 reagent was added to each well at a final concentration of 10% (v/v), and then the plates were incubated at 37° C. for 1-2 hours for color development. The absorbance was measured at 450 nm using a SPECTRAmax PLUS plate reader (Molecular Devices, Sunnyvale, Calif.). The readings were normalized to the DMSO-treated cells and the half maximal inhibitory concentration (IC50) was calculated by nonlinear regression (four parameters sigmoid fitted with variable slope, least squares fit, and no constraint) analysis using the GraphPad Prism 5 software (GraphPad Software, La Jolla, Calif.).
Background: Tetrazolium assays rely on reduction of a dye to a coloured formazan, in cell work by metabolically active cells.

What is called IC50 is the point on the concentration scale where inhibition reaches its midpoint. With `C=CC(=O)N1CC(S(=O)(=O)c2ccc(N3CC(CN4CCC([C@@](CN(C)C)(c5cccc(F)c5)[C@H]5CCC[C@@H]5NC(=O)OC)CC4)C3)cc2)C1` [Cpd. No. 1, methyl ((1S,2R)-2-((S)-1-(1-((1-(4-((1-acryloylazetidin-3-yl)sulfonyl)phenyl)azetidin-3-yl)methyl)piperidin-4-yl)-2-(dimethylamino)-1-(3-fluorophenyl)ethyl)cyclopentyl)carbamate], on menin protein, the IC50 was 2 nM. On to `COC(=O)N[C@H]1CCC[C@@H]1[C@](CN1CCCCC1)(c1cccc(F)c1)C1CCN(CC2CN(c3ccc(S(=O)(=O)C4CN(C(=O)/C=C/CN(C)C)C4)cc3)C2)CC1` [Cpd. No. 4, methyl ((1S,2R)-2-((S)-1-(1-((1-(4-((1-((E)-4-(dimethylamino)but-2-enoyl)azetidin-3-yl)sulfonyl)phenyl)azetidin-3-yl)methyl)piperidin-4-yl)-1-(3-fluorophenyl)-2-(piperidin-1-yl)ethyl)cyclopentyl)carbamate], for which, at menin protein, the IC50 was 2 nM.

For the molecule `COC(=O)N[C@H]1CCC[C@@H]1[C@](CN1CCOCC1)(c1cccc(F)c1)C1CCN(CC2CN(c3ccc(S(=O)(=O)C4CN(C(=O)/C=C/CN(C)C)C4)cc3)C2)CC1` [Cpd. No. 6, methyl ((1S,2R)-2-((S)-1-(1-((1-(4-((1-((E)-4-(dimethylamino)but-2-enoyl)azetidin-3-yl)sulfonyl)phenyl)azetidin-3-yl)methyl)piperidin-4-yl)-1-(3-fluorophenyl)-2-morpholinoethyl)cyclopentyl)carbamate], the IC50 on menin protein came to 2 nM.

Regarding `COC(=O)N[C@H]1CCC[C@@H]1[C@](CN1CCC(C)(O)CC1)(c1cccc(F)c1)C1CCN(CC2CN(c3ccc(S(=O)(=O)C4CN(C(=O)/C=C/CN(C)C)C4)cc3)C2)CC1` [Cpd. No. 8, methyl ((1S,2R)-2-((S)-1-(1-((1-(4-((1-((E)-4-(dimethylamino)but-2-enoyl)azetidin-3-yl)sulfonyl)phenyl)azetidin-3-yl)methyl)piperidin-4-yl)-1-(3-fluorophenyl)-2-(4-hydroxy-4-methylpiperidin-1-yl)ethyl)cyclopentyl)carbamate], the IC50 on menin protein was determined as 2 nM.

As for `C=C(CN(C)C)C(=O)N1CC(S(=O)(=O)c2ccc(N3CC(CN4CCC([C@@](CN5CCC5)(c5cccc(F)c5)[C@H]5CCC[C@@H]5NC(=O)OC)CC4)C3)cc2)C1` [Cpd. No. 10, methyl ((1S,2R)-2-((S)-2-(azetidin-1-yl)-1-(1-((1-(4-((1-(2-((dimethylamino)methyl)acryloyl)azetidin-3-yl)sulfonyl)phenyl)azetidin-3-yl)methyl)piperidin-4-yl)-1-(3-fluorophenyl)ethyl)cyclopentyl)carbamate], the IC50 at menin protein is 3 nM. On to `CC#CC(=O)N1CC(S(=O)(=O)c2ccc(N3CC(CN4CCC([C@@](CNC(C)=O)(c5cccc(F)c5)[C@H]5CCC[C@@H]5NC(=O)OC)CC4)C3)cc2)C1` [compound 130], for which the IC50 with MV4-11 was less than 10 nM.

In turn, `C=CC(=O)N1CCCC(S(=O)(=O)c2ccc(N3CC(F)(CN4CCC([C@@](CNC(C)=O)(c5cccc(F)c5)[C@H]5CCC[C@@H]5NC(=O)OC)CC4)C3)cc2)C1` (some centres unmarked) [compound 149] registered an IC50 in the test with MV4-11 of less than 500 nM. The same measure, in the same setting: then `CC#CC(=O)N1CC(S(=O)(=O)c2ccc(N3CC(CN4CCC([C@@](CNC(C)=O)(c5cccc(F)c5)[C@H]5CCC[C@@H]5NC(=O)OC)CC4)C3)cc2CN2CC(F)C2)C1` [compound 164], with less than 10 nM. On the same count and under the same terms, then `CC#CC(=O)N1CC(S(=O)(=O)c2ccc(N3CC(F)(CN4CCC([C@@](CNC(C)=O)(c5cccc(F)c5)[C@H]5CCC[C@@H]5NC(=O)OC)CC4)C3)cc2CN2CC(F)C2)C1` [compound 178], with less than 50 nM; and `C=CC(=O)N1CCOC[C@@H](S(=O)(=O)c2ccc(N3CC(F)(CN4CCC([C@@](CNC(=O)OC)(c5cccc(F)c5)[C@H]5CCC[C@@H]5NC(=O)OC)CC4)C3)c(F)c2)C1` [compound 180], with less than 100 nM. On the same count and under the same terms, the same measure for `CC#CC(=O)N1CCC[C@H](S(=O)(=O)c2ccc(N3CC(F)(CN4CCC([C@@](CN5CCC5)(c5cccc(F)c5)[C@H]5CCC[C@@H]5NC(=O)OC)CC4)C3)c(F)c2)C1` [compound 192]: less than 10 nM; for `CC#CC(=O)N1CC[C@H](S(=O)(=O)c2ccc(N3CC(F)(CN4CCC([C@@](CN5CCC5)(c5cccc(F)c5)[C@H]5CCC[C@@H]5NC(=O)OC)CC4)C3)c(F)c2)C1` [compound 194]: less than 500 nM; for `C=CC(=O)N1CCC[C@@H](S(=O)(=O)c2ccc(N3CC(O)(CN4CCC([C@@](CN5CCC5)(c5cccc(F)c5)[C@H]5CCC[C@@H]5NC(=O)OC)CC4)C3)cc2)C1` [compound 195]: less than 10 nM.

Regarding `C=CC(=O)N1CCC[C@@H](S(=O)(=O)c2ccc(N3CC(CF)(CN4CCC([C@@](CN5CCC5)(c5cccc(F)c5)[C@H]5CCC[C@@H]5NC(=O)OC)CC4)C3)cc2)C1` [compound 196], in the test on MV4-11, the half-inhibitory concentration (IC50) was less than 100 nM. In the case of `C=CC(=O)N1CCC[C@@H](S(=O)(=O)c2ccc(N3CC(CN4CCC([C@@](CN5CCC5)(c5cccc(F)c5)[C@H]5CCC[C@@H]5NC(=O)OC)CC4)C3)cc2)C1` [compound 197], the IC50 with MV4-11 was less than 10 nM. The same measure, in the same setting: then `C=CC(=O)N1CCC[C@@H](S(=O)(=O)c2ccc(N3CC(CN4CCC([C@@](C#N)(c5cccc(F)c5)[C@H]5CCC[C@@H]5NC(=O)OC)CC4)C3)cc2)C1` [compound 201], with less than 500 nM; and `CC#CC(=O)N1CC[C@@H](S(=O)(=O)c2ccc(N3CC(O)(CN4CCC([C@@](CN5CCC5)(c5cccc(F)c5)[C@H]5CCC[C@@H]5NC(=O)OC)CC4)C3)c(F)c2)C1` [compound 202], with less than 10 nM; and `CC#CC(=O)N1CC(S(=O)(=O)c2ccc(N3CC(O)(CN4CCC([C@@](CN5CCC5)(c5cccc(F)c5)[C@H]5CCC[C@@H]5NC(=O)OC)CC4)C3)cc2)C1` [compound 203], with less than 10 nM. Still for that read-out and setting: the same measure for `COC(=O)N[C@H]1CCC[C@@H]1[C@](CN1CCC1)(c1cccc(F)c1)C1CCN(CC2CN(c3ccc(S(=O)(=O)[C@@H]4CCCN(C(=O)/C=C/CN5CCCCC5)C4)cc3)C2)CC1` [compound 204]: less than 50 nM; for `CC#CC(=O)N1CC(S(=O)(=O)c2ccc(N3CC(O)(CN4CCC([C@@](CNC(C)=O)(c5cccc(F)c5)[C@H]5CCC[C@@H]5NC(=O)OC)CC4)C3)cc2)C1` [compound 207]: less than 100 nM. Still for that read-out and setting: then `C=CC(=O)N1CC[C@@H](S(=O)(=O)c2ccc(N3CC(CN4CCC([C@@](CN5CCC5)(c5cccc(F)c5)[C@H]5CCC[C@@H]5NC(=O)OC)CC4)C3)cc2CN2CC(F)C2)C1` [compound 209], with less than 50 nM; and `CC#CC(=O)N1CC[C@@H](S(=O)(=O)c2ccc(N3CC(CN4CCC([C@@](CN5CCC5)(c5cccc(F)c5)[C@H]5CCC[C@@H]5NC(=O)OC)CC4)C3)cc2CN2CC(F)C2)C1` [compound 210], with less than 50 nM; and `C=CC(=O)N1CCC[C@@H](S(=O)(=O)c2ccc(N3CC(C)(CN4CCC([C@@](CN5CCC5)(c5cccc(F)c5)[C@H]5CCC[C@@H]5NC(=O)OC)CC4)C3)cc2)C1` [compound 211], with less than 50 nM.
